Source: PMC9482650, “Quantitative fragmentomics allow affinity mapping of interactomes” (Nature Communications, 2022)
Ends that are not written are not given here.

Columns and labels:
Test in all cases: Holdup assay
Type in all cases: binding
[1] = biological target: MAGI3_2 PDZ (Homo sapiens, UniProt Q5TCQ9); conditions: composite holdup affinity; 0.00=below quantification threshold; read-out: COMP pKd (converted)
[2] = biological target: T1, SYNJ2BP PDZ (Homo sapiens, UniProt P57105); conditions: composite holdup affinity; 0.00=below quantification threshold; read-out: COMP pKd (converted)
T1 sequence (P57105 13-100 limits assumed): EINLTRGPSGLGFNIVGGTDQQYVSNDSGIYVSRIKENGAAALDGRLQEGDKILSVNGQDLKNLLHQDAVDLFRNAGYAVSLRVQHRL

[3] = biological target: LNX2_2 PDZ (Homo sapiens, UniProt Q8N448); conditions: composite holdup affinity; 0.00=below quantification threshold; read-out: COMP pKd (converted)
[4] = biological target: MAST1 PDZ (Homo sapiens, UniProt Q9Y2H9); conditions: composite holdup affinity; 0.00=below quantification threshold; read-out: COMP pKd (converted)
[5] = biological target: T2, TX1BP3 PDZ (Homo sapiens, UniProt O14907); conditions: composite holdup affinity; 0.00=below quantification threshold; read-out: COMP pKd (converted)
T2 sequence (O14907 15-112 limits assumed): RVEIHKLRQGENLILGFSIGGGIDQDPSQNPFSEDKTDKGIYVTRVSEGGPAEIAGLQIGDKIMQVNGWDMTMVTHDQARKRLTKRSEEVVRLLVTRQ

[6] = biological target: SNTG1 PDZ (Homo sapiens, UniProt Q9NSN8); conditions: composite holdup affinity; 0.00=below quantification threshold; read-out: COMP pKd (converted)
[7] = biological target: T3, SCRIB2 PDZ (Homo sapiens, UniProt Q14160); conditions: composite holdup affinity; 0.00=below quantification threshold; read-out: COMP pKd (converted)
T3 sequence (Q14160 862-950 limits assumed): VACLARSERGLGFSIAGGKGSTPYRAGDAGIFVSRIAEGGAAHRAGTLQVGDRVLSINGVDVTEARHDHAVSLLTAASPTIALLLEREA

[8] = biological target: PDZRN3_1 PDZ (Homo sapiens, UniProt Q9UPQ7); conditions: composite holdup affinity; 0.00=below quantification threshold; read-out: COMP pKd (converted)
[9] = biological target: DFNB31_1 PDZ (Homo sapiens, UniProt Q9P202); conditions: composite holdup affinity; 0.00=below quantification threshold; read-out: COMP pKd (converted)
[10] = biological target: ARHGEF11 PDZ (Homo sapiens, UniProt O15085); conditions: composite holdup affinity; 0.00=below quantification threshold; read-out: COMP pKd (converted)
[11] = biological target: RADIL PDZ (Homo sapiens, UniProt Q96JH8); conditions: composite holdup affinity; 0.00=below quantification threshold; read-out: COMP pKd (converted)
[12] = biological target: MAGI2_4 PDZ (Homo sapiens, UniProt Q86UL8); conditions: composite holdup affinity; 0.00=below quantification threshold; read-out: COMP pKd (converted)
[13] = biological target: DLG3_1 PDZ (Homo sapiens, UniProt Q92796); conditions: composite holdup affinity; 0.00=below quantification threshold; read-out: COMP pKd (converted)
[14] = biological target: MAGI2_3 PDZ (Homo sapiens, UniProt Q86UL8); conditions: composite holdup affinity; 0.00=below quantification threshold; read-out: COMP pKd (converted)
[15] = biological target: NOS1 PDZ (Homo sapiens, UniProt P29475); conditions: composite holdup affinity; 0.00=below quantification threshold; read-out: COMP pKd (converted)
[16] = biological target: CNKSR1 PDZ (Homo sapiens, UniProt Q969H4); conditions: sheet PPI_convert; read-out: affinity to PDZ CNKSR1 (converted)
Excerpt: Supplement 41467_2022_33018_MOESM4_ESM.xlsx, sheet "PPI_convert" | column: CNKSR1

[17] = biological target: DLG5_2 PDZ (Homo sapiens, UniProt Q8TDM6); conditions: sheet PPI_convert; read-out: affinity to PDZ DLG5_2 (converted)
[18] = biological target: DVL1 PDZ (Homo sapiens, UniProt O14640); conditions: sheet PPI_convert; read-out: affinity to PDZ DVL1 (converted)
[19] = biological target: DVL2 PDZ (Homo sapiens, UniProt O14641); conditions: sheet PPI_convert; read-out: affinity to PDZ DVL2 (converted)
[20] = biological target: PDZD2_3 PDZ (Homo sapiens, UniProt O15018); conditions: sheet PPI_convert; read-out: affinity to PDZ PDZD2_3 (converted)
[21] = biological target: PDZD2_4 PDZ (Homo sapiens, UniProt O15018); conditions: sheet PPI_convert; read-out: affinity to PDZ PDZD2_4 (converted)
[22] = biological target: HTRA1 PDZ (Homo sapiens, UniProt Q92743); conditions: composite holdup affinity; 0.00=below quantification threshold; read-out: COMP pKd (converted)
[23] = biological target: MAGI2_6 PDZ (Homo sapiens, UniProt Q86UL8); conditions: composite holdup affinity; 0.00=below quantification threshold; read-out: COMP pKd (converted)
[24] = biological target: SHANK1 PDZ (Homo sapiens, UniProt Q9Y566); conditions: composite holdup affinity; 0.00=below quantification threshold; read-out: COMP pKd (converted)
[25] = biological target: GRASP PDZ (Homo sapiens, UniProt Q7Z6J2); conditions: composite holdup affinity; 0.00=below quantification threshold; read-out: COMP pKd (converted)
[26] = biological target: Inadl_3 PDZ (Homo sapiens, UniProt Q8NI35); conditions: composite holdup affinity; 0.00=below quantification threshold; read-out: COMP pKd (converted)
[27] = biological target: IL16_1 PDZ (Homo sapiens, UniProt Q14005); conditions: composite holdup affinity; 0.00=below quantification threshold; read-out: COMP pKd (converted)
[28] = biological target: LIN7B PDZ (Homo sapiens, UniProt Q9HAP6); conditions: composite holdup affinity; 0.00=below quantification threshold; read-out: COMP pKd (converted)
[29] = biological target: GRIP2_6 PDZ (Homo sapiens, UniProt Q9C0E4); conditions: composite holdup affinity; 0.00=below quantification threshold; read-out: COMP pKd (converted)
[30] = biological target: FRMPD2_3 PDZ (Homo sapiens, UniProt Q68DX3); conditions: composite holdup affinity; 0.00=below quantification threshold; read-out: COMP pKd (converted)
[31] = biological target: LIMK2 PDZ (Homo sapiens, UniProt P53671); conditions: composite holdup affinity; 0.00=below quantification threshold; read-out: COMP pKd (converted)
[32] = biological target: GRIP2_3 PDZ (Homo sapiens, UniProt Q9C0E4); conditions: composite holdup affinity; 0.00=below quantification threshold; read-out: COMP pKd (converted)
[33] = biological target: AHNAK1 PDZ (Homo sapiens, UniProt Q09666); conditions: composite holdup affinity; 0.00=below quantification threshold; read-out: COMP pKd (converted)
[34] = biological target: MAGI1_3 PDZ (Homo sapiens, UniProt Q96QZ7); conditions: sheet PPI_convert; read-out: affinity to PDZ MAGI1_3 (converted)
Chain of MAGI1_3 PDZ (Q96QZ7 643-721 limits assumed): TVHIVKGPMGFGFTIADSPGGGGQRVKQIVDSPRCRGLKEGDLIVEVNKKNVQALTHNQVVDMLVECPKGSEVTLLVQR

Chain of NOS1 PDZ (P29475 17-99 limits assumed): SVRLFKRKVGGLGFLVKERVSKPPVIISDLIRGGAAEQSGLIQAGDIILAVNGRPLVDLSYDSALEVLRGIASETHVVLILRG
Chain of PDZRN3_1 PDZ (Q9UPQ7 249-339 limits assumed): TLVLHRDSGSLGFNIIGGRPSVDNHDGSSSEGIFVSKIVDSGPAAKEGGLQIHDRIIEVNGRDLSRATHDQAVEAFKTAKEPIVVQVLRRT
Chain of DLG3_1 PDZ (Q92796 130-217 limits assumed): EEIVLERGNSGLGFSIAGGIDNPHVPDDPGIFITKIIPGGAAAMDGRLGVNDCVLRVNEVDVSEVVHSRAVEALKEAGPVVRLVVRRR
Chain of MAGI3_2 PDZ (Q5TCQ9 410-492 limits assumed): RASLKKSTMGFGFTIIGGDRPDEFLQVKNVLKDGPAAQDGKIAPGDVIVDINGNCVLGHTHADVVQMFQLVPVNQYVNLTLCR
Chain of ARHGEF11 PDZ (O15085 47-126 limits assumed): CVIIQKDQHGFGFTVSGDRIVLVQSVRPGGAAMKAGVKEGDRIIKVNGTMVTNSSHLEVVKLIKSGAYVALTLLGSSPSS
Chain of LNX2_2 PDZ (Q8N448 339-422 limits assumed): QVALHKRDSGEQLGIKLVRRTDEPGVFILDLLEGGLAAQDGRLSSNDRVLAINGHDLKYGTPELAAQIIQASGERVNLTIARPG
Chain of MAGI2_4 PDZ (Q86UL8 778-860 limits assumed): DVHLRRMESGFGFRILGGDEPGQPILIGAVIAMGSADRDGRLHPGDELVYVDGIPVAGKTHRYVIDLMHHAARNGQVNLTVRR
Chain of MAST1 PDZ (Q9Y2H9 967-1055 limits assumed): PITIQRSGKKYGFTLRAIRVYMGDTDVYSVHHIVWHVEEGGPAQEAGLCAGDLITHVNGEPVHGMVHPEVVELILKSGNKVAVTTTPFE
Chain of SNTG1 PDZ (Q9NSN8 57-140 limits assumed): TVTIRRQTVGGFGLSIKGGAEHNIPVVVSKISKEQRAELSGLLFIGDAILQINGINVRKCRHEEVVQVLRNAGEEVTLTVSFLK
Chain of PDZD2_4 PDZ (O15018 728-813 limits assumed): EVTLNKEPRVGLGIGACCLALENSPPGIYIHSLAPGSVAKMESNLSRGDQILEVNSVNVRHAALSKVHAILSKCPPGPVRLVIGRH
Chain of MAGI2_3 PDZ (Q86UL8 605-683 limits assumed): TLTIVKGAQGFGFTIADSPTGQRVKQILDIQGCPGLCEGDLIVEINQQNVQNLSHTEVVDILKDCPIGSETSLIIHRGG
Chain of DFNB31_1 PDZ (Q9P202 140-223 limits assumed): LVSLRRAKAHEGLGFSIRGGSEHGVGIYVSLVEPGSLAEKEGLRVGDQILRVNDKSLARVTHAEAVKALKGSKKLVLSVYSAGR
Chain of RADIL PDZ (Q96JH8 976-1061 limits assumed): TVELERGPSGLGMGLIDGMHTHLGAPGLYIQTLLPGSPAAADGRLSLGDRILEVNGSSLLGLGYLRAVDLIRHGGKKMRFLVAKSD
Chain of GRIP2_6 PDZ (Q9C0E4 656-738 limits assumed): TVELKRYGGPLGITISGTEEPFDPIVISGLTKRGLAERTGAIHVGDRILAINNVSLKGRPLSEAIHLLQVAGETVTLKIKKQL
Chain of DVL2 PDZ (O14641 267-339 limits assumed): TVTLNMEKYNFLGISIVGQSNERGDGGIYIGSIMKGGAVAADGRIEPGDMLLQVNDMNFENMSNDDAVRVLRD
Chain of PDZD2_3 PDZ (O15018 586-672 limits assumed): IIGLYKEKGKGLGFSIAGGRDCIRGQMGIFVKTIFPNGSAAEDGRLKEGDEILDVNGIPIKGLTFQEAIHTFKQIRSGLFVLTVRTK
Chain of LIMK2 PDZ (P53671 152-239 limits assumed): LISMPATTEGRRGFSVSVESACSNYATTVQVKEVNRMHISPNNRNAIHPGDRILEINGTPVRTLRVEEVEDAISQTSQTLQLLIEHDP
Chain of AHNAK1 PDZ (Q09666 9-90 limits assumed): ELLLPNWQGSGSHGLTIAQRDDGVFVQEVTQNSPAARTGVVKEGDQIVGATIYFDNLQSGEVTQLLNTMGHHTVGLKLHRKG
Chain of HTRA1 PDZ (Q92743 365-467 limits assumed): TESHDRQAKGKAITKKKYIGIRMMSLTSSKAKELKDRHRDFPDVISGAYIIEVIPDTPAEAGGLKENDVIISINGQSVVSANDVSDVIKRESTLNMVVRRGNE
Chain of IL16_1 PDZ (Q14005 216-302 limits assumed): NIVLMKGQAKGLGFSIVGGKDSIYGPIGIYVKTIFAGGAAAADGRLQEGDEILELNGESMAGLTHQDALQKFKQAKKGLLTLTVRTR
Chain of Inadl_3 PDZ (Q8NI35 365-453 limits assumed): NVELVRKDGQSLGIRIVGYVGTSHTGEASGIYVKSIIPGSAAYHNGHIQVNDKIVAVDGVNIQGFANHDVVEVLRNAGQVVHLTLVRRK
Chain of DLG5_2 PDZ (Q8TDM6 705-796 limits assumed): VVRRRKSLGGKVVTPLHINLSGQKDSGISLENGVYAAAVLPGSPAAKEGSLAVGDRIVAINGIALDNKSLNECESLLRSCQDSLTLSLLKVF
Chain of FRMPD2_3 PDZ (Q68DX3 1079-1167 limits assumed): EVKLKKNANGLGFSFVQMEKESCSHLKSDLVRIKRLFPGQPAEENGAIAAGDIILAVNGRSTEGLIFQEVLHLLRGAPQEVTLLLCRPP
Chain of MAGI2_6 PDZ (Q86UL8 1147-1229 limits assumed): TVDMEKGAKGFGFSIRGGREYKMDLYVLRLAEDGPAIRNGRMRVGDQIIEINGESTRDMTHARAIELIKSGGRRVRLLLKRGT
Chain of DVL1 PDZ (O14640 251-323 limits assumed): as the sequence (O14641 267-339 limits assumed) above, with K8R, Y9H, N10H, E22D, M57V, D73E counted along it
Chain of LIN7B PDZ (Q9HAP6 93-175 limits assumed): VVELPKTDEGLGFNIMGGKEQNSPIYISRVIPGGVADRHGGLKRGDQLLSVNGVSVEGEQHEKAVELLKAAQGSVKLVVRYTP
Chain of GRASP PDZ (Q7Z6J2 101-190 limits assumed): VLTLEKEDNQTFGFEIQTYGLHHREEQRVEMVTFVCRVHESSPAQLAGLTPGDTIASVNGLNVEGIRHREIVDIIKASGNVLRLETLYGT
Chain of SHANK1 PDZ (Q9Y566 663-757 limits assumed): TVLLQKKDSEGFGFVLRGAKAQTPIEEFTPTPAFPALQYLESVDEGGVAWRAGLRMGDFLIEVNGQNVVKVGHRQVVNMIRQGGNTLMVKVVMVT
Chain of GRIP2_3 PDZ (Q9C0E4 248-332 limits assumed): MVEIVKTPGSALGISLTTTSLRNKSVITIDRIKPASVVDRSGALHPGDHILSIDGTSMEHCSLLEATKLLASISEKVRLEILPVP
Chain of CNKSR1 PDZ (Q969H4 196-285 limits assumed): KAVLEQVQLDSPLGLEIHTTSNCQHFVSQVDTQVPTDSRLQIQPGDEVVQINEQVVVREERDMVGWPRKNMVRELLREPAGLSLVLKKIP

Sequence: RTRQRNETQV [HPV51-E6]
- Kd [1]: 1.48 µM
- Kd [2]: 9.55 µM
- Kd [3]: 245 µM
- Kd [4]: 58.9 µM
- Kd [5]: 74.1 µM
- Kd [6]: 105 µM
- Kd [7]: 40.7 µM
- Kd [8]: 87.1 µM
- Kd [9]: 339 µM
- Kd [10]: 204 µM
- Kd [11]: 151 µM
- Kd [12]: 39.8 µM
- Kd [13]: 52.5 µM
- Kd [14]: 95.5 µM
- Kd [15]: 123 µM
- Kd [16]: 36.3 µM
- Kd [17]: 23.4 µM
- Kd [18]: 13.8 µM
- Kd [19]: 25.7 µM
- Kd [20]: 60.3 µM
- Kd [21]: 45.7 µM

Sequence: RHTTSTETAV [HPV30-E6]
- Kd [1]: 4.37 µM
- Kd [2]: 4.37 µM
- Kd [3]: 170 µM
- Kd [22]: 186 µM
- Kd [4]: 21.9 µM
- Kd [5]: 22.4 µM
- Kd [6]: 11.5 µM
- Kd [23]: 64.6 µM
- Kd [7]: 7.76 µM
- Kd [8]: 20.9 µM
- Kd [9]: 53.7 µM
- Kd [24]: 186 µM
- Kd [25]: 110 µM
- Kd [10]: 44.7 µM
- Kd [12]: 85.1 µM
- Kd [13]: 35.5 µM
- Kd [26]: 170 µM
- Kd [27]: 83.2 µM
- Kd [14]: 26.9 µM
- Kd [15]: 23.4 µM
- Kd [28]: 195 µM
- Kd [29]: 170 µM
- Kd [30]: 135 µM
- Kd [31]: 141 µM
- Kd [32]: 245 µM
- Kd [33]: 191 µM
- Kd [34]: 19.1 µM
- Kd [21]: 16.6 µM
